From PMC5218480 (PLoS ONE, 2017)

Tested on: MV-4-11 cells
Assay: Gene expression microarray analysis (Affymetrix PrimeView) and GSEA
Type: cell-based, human
Set-up: RFU PODN (11730768_x_at) / Fold change /veh PODN (11730768_x_at) / RFU LINC00158 (11744669_a_at) / Fold change /veh LINC00158 (11744669_a_at) / RFU DUSP10 (11751237_a_at) / Fold change /veh DUSP10 (11751237_a_at) / RFU ID3 (11757404_x_at) / Fold change /veh ID3 (11757404_x_at) / RFU PLEKHG5 (11737974_s_at) / Fold change /veh PLEKHG5 (11737974_s_at) / RFU LRRC4B (11730491_at) / Fold change /veh LRRC4B (11730491_at) / RFU GIMAP4 (11747438_a_at) / Fold change /veh GIMAP4 (11747438_a_at) / RFU KRT8 (11758183_x_at) / Fold change /veh KRT8 (11758183_x_at) / RFU CNN1 (11734310_a_at) / Fold change /veh CNN1 (11734310_a_at) / RFU VPS37D (11726825_at) / Fold change /veh VPS37D (11726825_at) / RFU C10orf10 (11716522_x_at) / Fold change /veh C10orf10 (11716522_x_at) / RFU KIR2DL2 /// KIR2DL4 /// KIR2DL5A /// KIR2DL5B /// KIR2DS1 /// KIR2DS2 /// KIR2DS3 /// KIR2DS4 /// KIR3DL3 /// KIR3DL3 /// KIR3DS1 (11738374_at) / Fold change /veh KIR2DL2 /// KIR2DL4 /// KIR2DL5A /// KIR2DL5B /// KIR2DS1 /// KIR2DS2 /// KIR2DS3 /// KIR2DS4 /// KIR3DL3 /// KIR3DL3 /// KIR3DS1 (11738374_at) / RFU C1QL1 (11718748_at) / Fold change /veh C1QL1 (11718748_at) / RFU TMPRSS4 (11747572_a_at) / Fold change /veh TMPRSS4 (11747572_a_at) / RFU HAMP (11756126_x_at) / Fold change /veh HAMP (11756126_x_at) / RFU RNFT2 (11725882_a_at) / Fold change /veh RNFT2 (11725882_a_at) / RFU NR4A2 (11747474_a_at) / Fold change /veh NR4A2 (11747474_a_at) / RFU ABCC12 (11746883_a_at) / Fold change /veh ABCC12 (11746883_a_at) / RFU TMEM136 (11760407_x_at) / Fold change /veh TMEM136 (11760407_x_at) / RFU CLDN22 /// WWC2 (11732394_at) / Fold change /veh CLDN22 /// WWC2 (11732394_at) / RFU HLA-DPB1 (11760878_x_at) / Fold change /veh HLA-DPB1 (11760878_x_at) / RFU SPINT1 (11716480_a_at) / Fold change /veh SPINT1 (11716480_a_at) / RFU GAP43 (11754022_s_at) / Fold change /veh GAP43 (11754022_s_at) / RFU A4GNT (11735810_at) / Fold change /veh A4GNT (11735810_at) / RFU PRB3 (11715151_x_at) / Fold change /veh PRB3 (11715151_x_at) / RFU TUBB4B (11761932_at) / Fold change /veh TUBB4B (11761932_at) / RFU CAPN14 (11732068_a_at) / Fold change /veh CAPN14 (11732068_a_at) / RFU TMCC2 (11721928_a_at) / Fold change /veh TMCC2 (11721928_a_at) / RFU IRGQ (11745062_a_at) / Fold change /veh IRGQ (11745062_a_at) / RFU FAM174B (11720279_a_at) / Fold change /veh FAM174B (11720279_a_at) / RFU TMPRSS4 (11748680_a_at) / Fold change /veh TMPRSS4 (11748680_a_at) / RFU FAM212B (11763350_a_at) / Fold change /veh FAM212B (11763350_a_at) / RFU PLEKHG5 (11743358_a_at) / Fold change /veh PLEKHG5 (11743358_a_at) / RFU ZSCAN30 (11745921_a_at) / Fold change /veh ZSCAN30 (11745921_a_at) / RFU CMKLR1 (11741424_a_at) / Fold change /veh CMKLR1 (11741424_a_at) / RFU LOC101060620 /// MAPK8IP1 (11723275_at) / Fold change /veh LOC101060620 /// MAPK8IP1 (11723275_at) / RFU SPTSSB (11747773_x_at) / Fold change /veh SPTSSB (11747773_x_at) / RFU PRSS12 (11739890_at) / Fold change /veh PRSS12 (11739890_at) / RFU BIN1 (11741810_x_at) / Fold change /veh BIN1 (11741810_x_at) / RFU WNT11 (11732464_a_at) / Fold change /veh WNT11 (11732464_a_at) / RFU C10orf10 (11716521_a_at) / Fold change /veh C10orf10 (11716521_a_at) / RFU C5orf56 (11738089_at) / Fold change /veh C5orf56 (11738089_at) / RFU CYB561 (11721691_x_at) / Fold change /veh CYB561 (11721691_x_at) / RFU ANKRD19P (11752326_a_at) / Fold change /veh ANKRD19P (11752326_a_at) / RFU OR2T12 /// OR2T33 /// OR2T8 (11738714_s_at) / Fold change /veh OR2T12 /// OR2T33 /// OR2T8 (11738714_s_at) / RFU VCAN (11748164_a_at) / Fold change /veh VCAN (11748164_a_at) / RFU JSRP1 (11732532_at) / Fold change /veh JSRP1 (11732532_at) / RFU KRTAP10-11 (11738290_x_at) / Fold change /veh KRTAP10-11 (11738290_x_at) / RFU MYO3A (11730013_a_at) / Fold change /veh MYO3A (11730013_a_at) / RFU EBF3 (11725865_a_at) / Fold change /veh EBF3 (11725865_a_at) / RFU CAMK2N1 (11719241_x_at) / Fold change /veh CAMK2N1 (11719241_x_at) / RFU C5orf56 (11738088_a_at) / Fold change /veh C5orf56 (11738088_a_at) / RFU OLFML3 (11715873_a_at) / Fold change /veh OLFML3 (11715873_a_at) / RFU LOC100653217 /// NTM (11731650_a_at) / Fold change /veh LOC100653217 /// NTM (11731650_a_at) / RFU MAPK11 (11762145_a_at) / Fold change /veh MAPK11 (11762145_a_at) / RFU FIZ1 (11724087_x_at) / Fold change /veh FIZ1 (11724087_x_at) / RFU OASL (11726364_x_at) / Fold change /veh OASL (11726364_x_at) / RFU SOX15 (11748057_x_at) / Fold change /veh SOX15 (11748057_x_at) / RFU CD79A (11719716_a_at) / Fold change /veh CD79A (11719716_a_at) / RFU HIST1H1D (11736915_at) / Fold change /veh HIST1H1D (11736915_at) / RFU CASKIN2 (11723855_a_at) / Fold change /veh CASKIN2 (11723855_a_at) / RFU LOC730098 (11760151_x_at) / Fold change /veh LOC730098 (11760151_x_at) / RFU OR4N2 (11742367_at) / Fold change /veh OR4N2 (11742367_at) / RFU PRRT2 (11749266_a_at) / Fold change /veh PRRT2 (11749266_a_at) / RFU SNX32 (11753110_a_at) / Fold change /veh SNX32 (11753110_a_at) / RFU CDHR5 (11726645_a_at) / Fold change /veh CDHR5 (11726645_a_at) / RFU RCAN1 (11760418_a_at) / Fold change /veh RCAN1 (11760418_a_at) / RFU FAM167A (11723789_a_at) / Fold change /veh FAM167A (11723789_a_at) / RFU FAM26E (11764081_at) / Fold change /veh FAM26E (11764081_at) / RFU ISYNA1 (11749810_s_at) / Fold change /veh ISYNA1 (11749810_s_at) / RFU ACY1 (11761880_at) / Fold change /veh ACY1 (11761880_at) / RFU 11764098_at / Fold change /veh 11764098_at / RFU SAMD14 (11745864_x_at) / Fold change /veh SAMD14 (11745864_x_at) / RFU NPB (11741838_a_at) / Fold change /veh NPB (11741838_a_at) / RFU TMPRSS6 (11731388_a_at) / Fold change /veh TMPRSS6 (11731388_a_at) / RFU KRTAP10-2 (11738614_at) / Fold change /veh KRTAP10-2 (11738614_at) / RFU ARHGAP8 /// PRR5-ARHGAP8 (11727945_x_at) / Fold change /veh ARHGAP8 /// PRR5-ARHGAP8 (11727945_x_at) / RFU KRTAP5-7 /// NADSYN1 (11734609_at) / Fold change /veh KRTAP5-7 /// NADSYN1 (11734609_at) / RFU RASL12 (11751679_a_at) / Fold change /veh RASL12 (11751679_a_at) / RFU CDKN2B (11736163_a_at) / Fold change /veh CDKN2B (11736163_a_at) / RFU PRF1 (11729649_at) / Fold change /veh PRF1 (11729649_at) / RFU, ZNF638 /// ZNF638-IT1 / Fold change vs veh, ZNF638 /// ZNF638-IT1 / RFU, PANK3 / Fold change vs veh, PANK3 / RFU, SH3YL1 / Fold change vs veh, SH3YL1 / RFU, ZEB2 / Fold change vs veh, ZEB2 / RFU, NRIP1 / Fold change vs veh, NRIP1 / RFU, PTTG1IP / Fold change vs veh, PTTG1IP / RFU, CAPN2 / Fold change vs veh, CAPN2 / RFU, MED14 / Fold change vs veh, MED14 / RFU, SNORA58 / Fold change vs veh, SNORA58 / RFU, C1orf63 / Fold change vs veh, C1orf63 / RFU, LRRFIP1 / Fold change vs veh, LRRFIP1 / RFU, NDUFAF7 / Fold change vs veh, NDUFAF7 / RFU, SLC12A2 / Fold change vs veh, SLC12A2 / RFU, IBTK / Fold change vs veh, IBTK / RFU, ESF1 / Fold change vs veh, ESF1 / Fold change vs veh, TMEM50B / RFU, TAOK1 / Fold change vs veh, TAOK1 / RFU, ACBD3 / Fold change vs veh, ACBD3 / RFU, TMA16 / Fold change vs veh, TMA16 / RFU, RWDD3 / Fold change vs veh, RWDD3 / RFU, BCAT1 / Fold change vs veh, BCAT1 / RFU, EDEM3 / Fold change vs veh, EDEM3 / RFU, TMEM33 / Fold change vs veh, TMEM33 / RFU, WDR75 / Fold change vs veh, WDR75 / RFU, AHCTF1 / Fold change vs veh, AHCTF1 / RFU, TFRC / Fold change vs veh, TFRC / RFU, ZDHHC17 / Fold change vs veh, ZDHHC17 / RFU, NOM1 / Fold change vs veh, NOM1 / RFU, ARL8B / Fold change vs veh, ARL8B / RFU, ZBTB11 / Fold change vs veh, ZBTB11 / RFU, TAMM41 / Fold change vs veh, TAMM41 / RFU, KIAA1704 /// LOC100996395 / Fold change vs veh, KIAA1704 /// LOC100996395 / RFU, ING1 / Fold change vs veh, ING1 / RFU, TRMT61B / Fold change vs veh, TRMT61B / RFU, FUBP3 / Fold change vs veh, FUBP3 / RFU, TP53 / Fold change vs veh, TP53 / RFU, TNKS2 / Fold change vs veh, TNKS2 / RFU, ZFP14 / Fold change vs veh, ZFP14 / RFU, ACTR2 / Fold change vs veh, ACTR2 / RFU, PPP3R1 / Fold change vs veh, PPP3R1 / RFU, PIK3R1 / Fold change vs veh, PIK3R1 / RFU, HNRNPA1 / Fold change vs veh, HNRNPA1 / RFU, RNF170 / Fold change vs veh, RNF170 / RFU, ZNF28 / Fold change vs veh, ZNF28 / RFU, RNGTT / Fold change vs veh, RNGTT / RFU, OGT / Fold change vs veh, OGT / RFU, BRD1 / Fold change vs veh, BRD1 / RFU, MARS / Fold change vs veh, MARS / RFU, ZNF655 / Fold change vs veh, ZNF655 / RFU, FAHD1 / Fold change vs veh, FAHD1 / RFU, BDP1 / Fold change vs veh, BDP1 / RFU, LRRCC1 / Fold change vs veh, LRRCC1 / RFU, ARID1A / Fold change vs veh, ARID1A / RFU, ZNF146 / Fold change vs veh, ZNF146 / RFU, ZNF330 / Fold change vs veh, ZNF330 / RFU, GPN3 / Fold change vs veh, GPN3 / RFU, C9orf123 / Fold change vs veh, C9orf123 / RFU, N4BP2L2 / Fold change vs veh, N4BP2L2 / RFU, ARFIP1 / Fold change vs veh, ARFIP1 / RFU, FAM179B / Fold change vs veh, FAM179B / RFU, BCL10 / Fold change vs veh, BCL10 / RFU, UHRF1BP1L / Fold change vs veh, UHRF1BP1L / RFU, BET1 / Fold change vs veh, BET1 / RFU, CNOT2 / Fold change vs veh, CNOT2 / RFU, ZNF268 / Fold change vs veh, ZNF268 / Fold change vs veh, ZNF507 / RFU, DGCR2 / Fold change vs veh, DGCR2 / RFU, WDSUB1 / Fold change vs veh, WDSUB1 / Fold change vs veh, HSP90B1 /// MIR3652 / RFU, ADSS / Fold change vs veh, ADSS / RFU, GK / Fold change vs veh, GK / RFU, ZNF148 / Fold change vs veh, ZNF148 / RFU, TAF9 / Fold change vs veh, TAF9 / RFU, SLC1A5 / Fold change vs veh, SLC1A5 / RFU, SLMO2 / Fold change vs veh, SLMO2 / RFU, ABCC4 / Fold change vs veh, ABCC4 / RFU, LOC101060439 /// RAP1B / Fold change vs veh, LOC101060439 /// RAP1B / RFU, RFX7 / Fold change vs veh, RFX7 / RFU, GTPBP10 / Fold change vs veh, GTPBP10 / RFU, CNEP1R1 / Fold change vs veh, CNEP1R1 / RFU, BIVM-ERCC5 /// ERCC5 / Fold change vs veh, BIVM-ERCC5 /// ERCC5 / RFU, ILF3 / Fold change vs veh, ILF3 / RFU 11762660_at / Fold change /veh 11762660_at / RFU VCAN (11757783_s_at) / Fold change /veh VCAN (11757783_s_at) / RFU DDX43 (11728927_at) / Fold change /veh DDX43 (11728927_at) / RFU KRT8 (11758188_x_at) / Fold change /veh KRT8 (11758188_x_at) / RFU NKD1 (11759106_at) / Fold change /veh NKD1 (11759106_at) / RFU SRD5A1 (11742802_a_at) / Fold change /veh SRD5A1 (11742802_a_at) / RFU TPSAB1 /// TPSB2 (11721975_s_at) / Fold change /veh TPSAB1 /// TPSB2 (11721975_s_at) / RFU GSTM3 (11746129_a_at) / Fold change /veh GSTM3 (11746129_a_at) / RFU IL23R (11737362_x_at) / Fold change /veh IL23R (11737362_x_at) / RFU TMEM51 (11727254_a_at) / Fold change /veh TMEM51 (11727254_a_at) / RFU PIWIL2 (11732686_x_at) / Fold change /veh PIWIL2 (11732686_x_at) / RFU ORM1 (11744905_x_at) / Fold change /veh ORM1 (11744905_x_at) / RFU CCDC152 (11743942_at) / Fold change /veh CCDC152 (11743942_at) / RFU ECM1 (11717891_a_at) / Fold change /veh ECM1 (11717891_a_at) / RFU IL23R (11748794_a_at) / Fold change /veh IL23R (11748794_a_at) / RFU TNFAIP8L3 (11732012_x_at) / Fold change /veh TNFAIP8L3 (11732012_x_at) / RFU MBOAT4 (11741988_at) / Fold change /veh MBOAT4 (11741988_at) / RFU 11764193_at / Fold change /veh 11764193_at / RFU TMEM53 (11763286_at) / Fold change /veh TMEM53 (11763286_at) / RFU MAGEB2 (11727129_at) / Fold change /veh MAGEB2 (11727129_at) / RFU TMEM200A (11744735_a_at) / Fold change /veh TMEM200A (11744735_a_at) / RFU CCDC152 (11751479_a_at) / Fold change /veh CCDC152 (11751479_a_at) / RFU FAM211A (11726209_a_at) / Fold change /veh FAM211A (11726209_a_at) / RFU RGS16 (11746705_a_at) / Fold change /veh RGS16 (11746705_a_at) / RFU VCAN (11755009_s_at) / Fold change /veh VCAN (11755009_s_at) / RFU RHOB (11743442_s_at) / Fold change /veh RHOB (11743442_s_at) / RFU RGS16 (11720943_a_at) / Fold change /veh RGS16 (11720943_a_at) / RFU RGS16 (11720944_at) / Fold change /veh RGS16 (11720944_at) / RFU, VPS4B / Fold change vs veh, VPS4B / RFU, CREB1 / Fold change vs veh, CREB1 / RFU, DNAJC13 / Fold change vs veh, DNAJC13 / RFU, GNAQ / Fold change vs veh, GNAQ / RFU, CDK5R1 / Fold change vs veh, CDK5R1 / RFU, ZRANB3 / Fold change vs veh, ZRANB3 / RFU, CUL4A / Fold change vs veh, CUL4A / RFU, CCNY / Fold change vs veh, CCNY / RFU, UFL1 / Fold change vs veh, UFL1 / RFU, COG3 / Fold change vs veh, COG3 / RFU, DIAPH2 / Fold change vs veh, DIAPH2 / RFU, SKA2 / Fold change vs veh, SKA2 / RFU, AFF3 / Fold change vs veh, AFF3 / RFU, LMF1 / Fold change vs veh, LMF1 / RFU, IPO11 / Fold change vs veh, IPO11 / RFU, DFFB / Fold change vs veh, DFFB / RFU, FOXP1 / Fold change vs veh, FOXP1 / RFU, CARD8 / Fold change vs veh, CARD8 / RFU, STRN3 / Fold change vs veh, STRN3 / RFU, ADK / Fold change vs veh, ADK / RFU, RASSF2 / Fold change vs veh, RASSF2 / RFU, WIPF1 / Fold change vs veh, WIPF1 / RFU, LARP1B / Fold change vs veh, LARP1B / RFU, RASA1 / Fold change vs veh, RASA1 / RFU, RB1 / Fold change vs veh, RB1 / RFU, PPFIA1 / Fold change vs veh, PPFIA1 / RFU, MAT2A / Fold change vs veh, MAT2A / RFU, CCT5 / Fold change vs veh, CCT5 / RFU, WDR92 / Fold change vs veh, WDR92 / RFU, CUX1 / Fold change vs veh, CUX1 / RFU, TTC7A / Fold change vs veh, TTC7A / RFU, TMEM135 / Fold change vs veh, TMEM135 / RFU, DEPTOR / Fold change vs veh, DEPTOR / RFU, CPM / Fold change vs veh, CPM / RFU, DNAJB6 / Fold change vs veh, DNAJB6 / RFU, CACNA2D3 / Fold change vs veh, CACNA2D3 / RFU, DTX4 / Fold change vs veh, DTX4 / RFU, TFCP2 / Fold change vs veh, TFCP2 / RFU, GMCL1 /// GMCL1P1 / Fold change vs veh, GMCL1 /// GMCL1P1 / RFU, AEBP2 / Fold change vs veh, AEBP2 / RFU, SNHG1 /// SNORD22 /// SNORD25 /// SNORD26 /// SNORD27 /// SNORD28 /// SNORD29 /// SNORD31 / Fold change vs veh, SNHG1 /// SNORD22 /// SNORD25 /// SNORD26 /// SNORD27 /// SNORD28 /// SNORD29 /// SNORD31 / Fold change (Aza/veh), C12orf56 (ProbeSet 11735607_a_at) / Fold change (ACY-1035/veh), C12orf56 (ProbeSet 11735607_a_at) / Fold change (Aza/veh), FGFR1OP (ProbeSet 11751329_s_at) / Fold change (ACY-1035/veh), FGFR1OP (ProbeSet 11751329_s_at) / Fold change (Aza/veh), VPS36 (ProbeSet 11739960_a_at) / Fold change (ACY-1035/veh), VPS36 (ProbeSet 11739960_a_at) / RFU SYPL1 (11715823_x_at) / Fold change /veh SYPL1 (11715823_x_at) / RFU IGFBP7 (11715501_s_at) / Fold change /veh IGFBP7 (11715501_s_at) / RFU REEP3 (11722064_at) / Fold change /veh REEP3 (11722064_at) / RFU IGLL1 (11728026_x_at) / Fold change /veh IGLL1 (11728026_x_at): dose or concentration left out as unconfirmed
Settings: ProbeSet 11717914_a_at; LIST B

## Nc1ncn([C@@H]2O[C@H](CO)[C@@H](O)[C@H]2O)c(=O)n1 [azacitidine]
  Fold change vs veh, BIVM-ERCC5 /// ERCC5: 0.92
